Assay results: patent US6248901A, “Heterocyclic vinyl ethers” (Hoffman-La Roche Inc., priority 1997, dated 2001)
pKi: −log10 of the molar value.

Each compound was assayed against rat mGluR2 receptor (Rattus norvegicus, UniProt P31421) (assay: GTP γ^35 S test for affinity to group II mGluR (antagonism of 1S,3R-ACPD effect, membranes with rat mGluR2)).
Assay type: biochemical
Method: The binding of the compounds of formula I in accordance with the invention to group II metabotropic glutamate receptors was determined in vitro. The preparations were tested in accordance with the test given hereinafter:
The GTP γ^35 S test was used to determine the affinity of a compound to the group II mGluR. Membranes which adhere to the rat mGluR2 receptor were used. These were stimulated with 10 μM 1S,3R-ACPD.
The Ki values of the compounds to be tested are given. The Ki value is defined by the following formula [formula]

rat mGluR2 receptor, sequence (P31421 19-872): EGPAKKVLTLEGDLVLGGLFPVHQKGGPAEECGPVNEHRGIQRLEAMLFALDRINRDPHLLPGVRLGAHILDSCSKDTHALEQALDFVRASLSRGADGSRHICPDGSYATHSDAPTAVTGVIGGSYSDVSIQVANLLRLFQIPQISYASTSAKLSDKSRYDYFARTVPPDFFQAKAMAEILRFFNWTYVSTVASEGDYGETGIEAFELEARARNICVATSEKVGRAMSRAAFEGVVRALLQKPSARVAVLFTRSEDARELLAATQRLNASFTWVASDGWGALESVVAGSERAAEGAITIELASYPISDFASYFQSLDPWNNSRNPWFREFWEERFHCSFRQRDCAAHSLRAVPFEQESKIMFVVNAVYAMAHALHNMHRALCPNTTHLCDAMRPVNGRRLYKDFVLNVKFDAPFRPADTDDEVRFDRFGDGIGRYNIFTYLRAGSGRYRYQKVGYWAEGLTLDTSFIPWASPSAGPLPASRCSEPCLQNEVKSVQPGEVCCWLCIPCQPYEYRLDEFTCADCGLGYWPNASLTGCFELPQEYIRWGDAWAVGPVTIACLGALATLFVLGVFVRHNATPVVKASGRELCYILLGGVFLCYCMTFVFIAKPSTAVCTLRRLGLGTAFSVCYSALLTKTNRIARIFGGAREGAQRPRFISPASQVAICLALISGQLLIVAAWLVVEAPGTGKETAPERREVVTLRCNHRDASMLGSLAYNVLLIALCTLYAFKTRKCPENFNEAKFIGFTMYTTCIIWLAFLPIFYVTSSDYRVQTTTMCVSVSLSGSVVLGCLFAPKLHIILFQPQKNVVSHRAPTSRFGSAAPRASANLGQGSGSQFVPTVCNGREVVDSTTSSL

**Q.** With `CC(C)OC(=Cn1cncn1)c1ccc(Cl)cc1Cl` [A, 1-[2-(2,4-Dichloro-phenyl)-2-isopropoxy-vinyl]-1H-[1,2,4]triazole] as the compound, how does the pKi read?
**A.** 5.93

**Q.** `CC(C)COC(=Cn1cncn1)c1ccc(Cl)cc1Cl` [B, 1-[2-(2,4-Dichloro-phenyl)-2-isobutoxy-vinyl]-1H-[1,2,4]triazole] was tested. Which pKi did it give?
**A.** 6.19

**Q.** With `CCCCOC(=Cn1cncn1)c1ccc(Cl)cc1Cl` [C, 1-[-2-(2,4-Dichloro-phenyl)-2-butoxy-2-vinyl]-1H-[1,2,4]triazole] as the compound, how does the pKi read?
**A.** 5.85

**Q.** `CC(C)OC(=Cn1cncn1)c1c(Cl)cc(Cl)cc1Cl` [D, 1-[2-(2,4,6-Trichloro-phenyl)-2-isopropoxy-vinyl]-1H-[1,2,4]triazole] was tested. Which pKi did it give?
**A.** 5.57

**Q.** With `COC(=Cn1cncn1)c1ccc(Cl)cc1Cl` [E, 1-[2-(2,4-Dichloro-phenyl)-2-methoxy-vinyl]-1H-[1,2,4]triazole] as the compound, how does the pKi read?
**A.** 4.96

**Q.** `CCCCOC(=Cn1cncn1)c1ccc(Br)cc1` [F, 1-[2-(4-Bromo-phenyl)-2-butoxy-vinyl]-1H-[1,2,4]triazole] was tested. Which pKi did it give?
**A.** 6.18
